In ChEMBL document CHEMBL1201862, “PubChem BioAssay data set” (2004):
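These data come from cells grown in 96-well plates and exposed to compound for 48 hours at five concentrations. Abbreviation: GI50, concentration required for 50% inhibition of growth.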 Activity calls are given as the source filed them. Cut-off read from the data, not from the text of the source: active = GI50 up to about 1.1 µM and inactive = higher.

Legend:
Assay in all cases: inhibition of tumour cell growth, NCI panel, 48 h
MOLT-4 = tested on: MOLT-4
EKVX = tested on: EKVX
SK-MEL-28 = tested on: SK-MEL-28
KM12 = tested on: KM12
HCT-15 = tested on: HCT-15
HOP-62 = tested on: HOP-62
SK-MEL-2 = tested on: SK-MEL-2
SF-295 = tested on: SF-295
UO-31 = tested on: UO-31
A549 = tested on: A549
SF-268 = tested on: SF-268
Malme-3M = tested on: Malme-3M
Hs-578T = tested on: Hs-578T
HT-29 = tested on: HT-29
DU-145 = tested on: DU-145
COLO 205 = tested on: COLO 205
MDA-N = tested on: MDA-N
UACC-257 = tested on: UACC-257
OVCAR-5 = tested on: OVCAR-5
SNB-19 = tested on: SNB-19
OVCAR-8 = tested on: OVCAR-8
CCRF-CEM = tested on: CCRF-CEM
CAKI-1 = tested on: CAKI-1
SK-OV-3 = tested on: SK-OV-3
PC-3 = tested on: PC-3
IGROV-1 = tested on: IGROV-1
SR = tested on: SR
SK-MEL-5 = tested on: SK-MEL-5
NCI-H226 = tested on: NCI-H226
BT-549 = tested on: BT-549
UACC-62 = tested on: UACC-62
RPMI-8226 = tested on: RPMI-8226
MDA-MB-435 = tested on: MDA-MB-435
U-251 = tested on: U-251
M14 = tested on: M14
A498 = tested on: A498
RXF 393 = tested on: RXF 393
786-0 = tested on: 786-0
ACHN = tested on: ACHN
NCI/ADR-RES = tested on: NCI/ADR-RES
SW-620 = tested on: SW-620
MDA-MB-231 = tested on: MDA-MB-231
HL-60 = tested on: HL-60
SN12C = tested on: SN12C
HCT-116 = tested on: HCT-116
MCF7 = tested on: MCF7
HOP-92 = tested on: HOP-92
SF-539 = tested on: SF-539
K562 = tested on: K562
OVCAR-3 = tested on: OVCAR-3
NCI-H23 = tested on: NCI-H23
T47D = tested on: T47D
OVCAR-4 = tested on: OVCAR-4
SNB-75 = tested on: SNB-75
NCI-H460 = tested on: NCI-H460
LOX IMVI = tested on: LOX IMVI
TK-10 = tested on: TK-10
NCI-H522 = tested on: NCI-H522

SMILES: CCOC(=O)CC(=O)Nc1cccc2nc[nH]c12
- GI50 (MOLT-4): > 100 µM (inactive)
- GI50 (EKVX): > 100 µM (inactive)
- GI50 (SK-MEL-28): > 100 µM (inactive)
- GI50 (KM12): 51.8 µM (inactive)
- GI50 (HCT-15): > 100 µM
- GI50 (HOP-62): > 100 µM (inactive)
- GI50 (SK-MEL-2): > 100 µM (inactive)
- GI50 (SF-295): > 100 µM (inactive)
- GI50 (UO-31): > 100 µM (inactive)
- GI50 (A549): > 100 µM (inactive)
- GI50 (SF-268): 98.2 µM (inactive)
- GI50 (Malme-3M): > 100 µM (inactive)
- GI50 (Hs-578T): 0.267 µM (active)
- GI50 (HT-29): > 100 µM (inactive)
- GI50 (DU-145): > 100 µM (inactive)
- GI50 (COLO 205): > 100 µM (inactive)
- GI50 (MDA-N): > 100 µM (inactive)
- GI50 (UACC-257): > 100 µM (inactive)
- GI50 (OVCAR-5): > 100 µM (inactive)
- GI50 (SNB-19): > 100 µM (inactive)
- GI50 (OVCAR-8): > 100 µM (inactive)
- GI50 (CCRF-CEM): > 100 µM (inactive)
- GI50 (CAKI-1): > 100 µM (inactive)
- GI50 (SK-OV-3): > 100 µM (inactive)
- GI50 (PC-3): > 100 µM (inactive)
- GI50 (IGROV-1): > 100 µM (inactive)
- GI50 (SR): > 100 µM (inactive)
- GI50 (SK-MEL-5): > 100 µM (inactive)
- GI50 (NCI-H226): > 100 µM (inactive)
- GI50 (BT-549): > 100 µM (inactive)
- GI50 (UACC-62): > 100 µM (inactive)
- GI50 (RPMI-8226): > 100 µM (inactive)
- GI50 (MDA-MB-435): > 100 µM (inactive)
- GI50 (U-251): > 100 µM (inactive)
- GI50 (M14): > 100 µM (inactive)
- GI50 (A498): > 100 µM (inactive)
- GI50 (RXF 393): > 100 µM (inactive)
- GI50 (786-0): > 100 µM (inactive)
- GI50 (ACHN): > 100 µM (inactive)
- GI50 (NCI/ADR-RES): > 100 µM (inactive)
- GI50 (SW-620): > 100 µM (inactive)
- GI50 (MDA-MB-231): > 100 µM (inactive)
- GI50 (HL-60): > 100 µM (inactive)
- GI50 (SN12C): > 100 µM (inactive)
- GI50 (HCT-116): > 100 µM (inactive)
- GI50 (MCF7): > 100 µM (inactive)
- GI50 (HOP-92): > 100 µM (inactive)
- GI50 (SF-539): > 100 µM (inactive)
- GI50 (K562): > 100 µM (inactive)
- GI50 (OVCAR-3): > 100 µM (inactive)
- GI50 (NCI-H23): > 100 µM (inactive)
- GI50 (T47D): > 100 µM (inactive)
- GI50 (OVCAR-4): > 100 µM (inactive)
- GI50 (SNB-75): 0.294 µM (active)
- GI50 (NCI-H460): > 100 µM (inactive)

SMILES: COc1ccc(C(=O)O[C@@H]2CCN3CC[C@H](C)[C@H]23)cc1
- GI50 (MOLT-4): > 100 µM (inactive)
- GI50 (EKVX): > 100 µM (inactive)
- GI50 (SK-MEL-28): > 100 µM (inactive)
- GI50 (KM12): > 100 µM (inactive)
- GI50 (HCT-15): > 100 µM
- GI50 (HOP-62): > 100 µM (inactive)
- GI50 (SK-MEL-2): > 100 µM (inactive)
- GI50 (SF-295): > 100 µM (inactive)
- GI50 (UO-31): 58.1 µM (inactive)
- GI50 (A549): > 100 µM (inactive)
- GI50 (SF-268): > 100 µM (inactive)
- GI50 (Hs-578T): > 100 µM (inactive)
- GI50 (HT-29): > 100 µM (inactive)
- GI50 (LOX IMVI): > 100 µM (inactive)
- GI50 (DU-145): > 100 µM (inactive)
- GI50 (COLO 205): > 100 µM (inactive)
- GI50 (MDA-N): > 100 µM (inactive)
- GI50 (UACC-257): > 100 µM (inactive)
- GI50 (OVCAR-5): > 100 µM (inactive)
- GI50 (SNB-19): > 100 µM (inactive)
- GI50 (OVCAR-8): > 100 µM (inactive)
- GI50 (CAKI-1): > 100 µM (inactive)
- GI50 (SK-OV-3): > 100 µM (inactive)
- GI50 (PC-3): > 100 µM (inactive)
- GI50 (IGROV-1): > 100 µM (inactive)
- GI50 (SR): > 100 µM (inactive)
- GI50 (SK-MEL-5): > 100 µM (inactive)
- GI50 (NCI-H226): > 100 µM (inactive)
- GI50 (BT-549): > 100 µM (inactive)
- GI50 (UACC-62): > 100 µM (inactive)
- GI50 (RPMI-8226): > 100 µM (inactive)
- GI50 (MDA-MB-435): > 100 µM (inactive)
- GI50 (U-251): > 100 µM (inactive)
- GI50 (M14): > 100 µM (inactive)
- GI50 (A498): > 100 µM (inactive)
- GI50 (RXF 393): 45.9 µM (inactive)
- GI50 (786-0): > 100 µM (inactive)
- GI50 (ACHN): > 100 µM (inactive)
- GI50 (NCI/ADR-RES): > 100 µM (inactive)
- GI50 (SW-620): > 100 µM (inactive)
- GI50 (MDA-MB-231): > 100 µM (inactive)
- GI50 (HL-60): > 100 µM (inactive)
- GI50 (SN12C): > 100 µM (inactive)
- GI50 (HCT-116): > 100 µM (inactive)
- GI50 (MCF7): > 100 µM (inactive)
- GI50 (HOP-92): > 100 µM (inactive)
- GI50 (SF-539): > 100 µM (inactive)
- GI50 (OVCAR-3): > 100 µM (inactive)
- GI50 (NCI-H23): > 100 µM (inactive)
- GI50 (T47D): > 100 µM (inactive)
- GI50 (TK-10): > 100 µM (inactive)
- GI50 (NCI-H522): > 100 µM (inactive)
- GI50 (SNB-75): > 100 µM (inactive)
- GI50 (NCI-H460): > 100 µM (inactive)

SMILES: O=C(O)CCNCC(=O)O
- GI50 (MOLT-4): > 100 µM (inactive)
- GI50 (EKVX): > 100 µM (inactive)
- GI50 (SK-MEL-28): > 100 µM (inactive)
- GI50 (KM12): > 100 µM (inactive)
- GI50 (HCT-15): > 100 µM
- GI50 (HOP-62): > 100 µM (inactive)
- GI50 (SK-MEL-2): > 100 µM (inactive)
- GI50 (SF-295): > 100 µM (inactive)
- GI50 (UO-31): > 100 µM (inactive)
- GI50 (A549): > 100 µM (inactive)
- GI50 (SF-268): > 100 µM (inactive)
- GI50 (Malme-3M): > 100 µM (inactive)
- GI50 (Hs-578T): > 100 µM (inactive)
- GI50 (HT-29): > 100 µM (inactive)
- GI50 (LOX IMVI): > 100 µM (inactive)
- GI50 (DU-145): > 100 µM (inactive)
- GI50 (COLO 205): > 100 µM (inactive)
- GI50 (MDA-N): > 100 µM (inactive)
- GI50 (UACC-257): > 100 µM (inactive)
- GI50 (OVCAR-5): > 100 µM (inactive)
- GI50 (SNB-19): > 100 µM (inactive)
- GI50 (OVCAR-8): > 100 µM (inactive)
- GI50 (CCRF-CEM): > 100 µM (inactive)
- GI50 (CAKI-1): > 100 µM (inactive)
- GI50 (SK-OV-3): > 100 µM (inactive)
- GI50 (PC-3): > 100 µM (inactive)
- GI50 (IGROV-1): > 100 µM (inactive)
- GI50 (SR): > 100 µM (inactive)
- GI50 (SK-MEL-5): > 100 µM (inactive)
- GI50 (NCI-H226): > 100 µM (inactive)
- GI50 (BT-549): > 100 µM (inactive)
- GI50 (UACC-62): > 100 µM (inactive)
- GI50 (RPMI-8226): > 100 µM (inactive)
- GI50 (MDA-MB-435): > 100 µM (inactive)
- GI50 (U-251): > 100 µM (inactive)
- GI50 (M14): > 100 µM (inactive)
- GI50 (A498): > 100 µM (inactive)
- GI50 (RXF 393): > 100 µM (inactive)
- GI50 (786-0): > 100 µM (inactive)
- GI50 (ACHN): > 100 µM (inactive)
- GI50 (NCI/ADR-RES): > 100 µM (inactive)
- GI50 (SW-620): > 100 µM (inactive)
- GI50 (MDA-MB-231): > 100 µM (inactive)
- GI50 (HL-60): > 100 µM (inactive)
- GI50 (SN12C): > 100 µM (inactive)
- GI50 (HCT-116): > 100 µM (inactive)
- GI50 (MCF7): > 100 µM (inactive)
- GI50 (HOP-92): > 100 µM (inactive)
- GI50 (SF-539): > 100 µM (inactive)
- GI50 (K562): > 100 µM (inactive)
- GI50 (OVCAR-3): > 100 µM (inactive)
- GI50 (NCI-H23): > 100 µM (inactive)
- GI50 (T47D): > 100 µM (inactive)
- GI50 (TK-10): > 100 µM (inactive)
- GI50 (NCI-H522): > 100 µM (inactive)
- GI50 (SNB-75): > 100 µM (inactive)
- GI50 (NCI-H460): > 100 µM (inactive)
